Laboratory results: PubChem BioAssay (NCI)
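Five compound concentrations were applied to cells in 96-well plates for 48 hours; endpoints were derived by simple linear interpolation of the resulting dose-response curve. TGI: concentration producing complete growth inhibition.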 Where a SMILES comes first, the peptide text is derived from it. The star is where a group is joined. Boc = CC(C)(C)OC(=O)*; Bn = c1ccc(C*)cc1

Experiments:
Experiment in all cases: NCI anticancer screen, dose series, 48 h
UACC-257 melanoma = system: UACC-257 melanoma
K-562 leukemia = system: K-562 leukemia
CAKI-1 renal = system: CAKI-1 renal
SF-539 CNS = system: SF-539 CNS
CCRF-CEM leukemia = system: CCRF-CEM leukemia
OVCAR-5 ovarian = system: OVCAR-5 ovarian
LOX IMVI melanoma = system: LOX IMVI melanoma
SK-MEL-28 melanoma = system: SK-MEL-28 melanoma
SN12C renal = system: SN12C renal
A498 renal = system: A498 renal
UACC-62 melanoma = system: UACC-62 melanoma
MDA-MB-435 = system: MDA-MB-435

| Compound | TGI (UACC-257 melanoma) | TGI (K-562 leukemia) | TGI (CAKI-1 renal) | TGI (SF-539 CNS) | TGI (CCRF-CEM leukemia) | TGI (OVCAR-5 ovarian) | TGI (LOX IMVI melanoma) | TGI (SK-MEL-28 melanoma) | TGI (SN12C renal) | TGI (A498 renal) | TGI (UACC-62 melanoma) | TGI (MDA-MB-435) |
| --- | --- | --- | --- | --- | --- | --- | --- | --- | --- | --- | --- | --- |
| C=CCN(N=O)C(=O)N(CCCCC(NC(C)=O)C(=O)NCc1ccccc1)Cc1ccccc1 (stereo not drawn) | > 100 µM | > 100 µM | > 100 µM | > 100 µM | 80.4 µM | > 100 µM | 55.3 µM | > 100 µM | > 100 µM | > 100 µM | > 100 µM | – |
| O=c1[nH]cc(COCC(O)CO)c(=O)[nH]1 (stereo not drawn) | > 100 µM | > 100 µM | > 100 µM | > 100 µM | > 100 µM | > 100 µM | > 100 µM | > 100 µM | > 100 µM | > 100 µM | > 100 µM | – |
| O=C1CC2(CCNCC2)C(=O)N1N1CCCCC1 | > 100 µM | > 100 µM | > 100 µM | > 100 µM | > 100 µM | > 100 µM | > 100 µM | > 100 µM | > 100 µM | > 100 µM | > 100 µM | – |
| COc1ccc2cc(/C=N\NC(=O)Nc3ccc([N+](=O)[O-])cc3)ccc2c1 | 20.7 µM | > 31.6 µM | 18.5 µM | 18.3 µM | – | 48.6 µM | 17.6 µM | 23.1 µM | 18 µM | – | 19.2 µM | 25.1 µM |
| O=C(/C=N/O)Nc1ccc(Cl)c(I)c1 | > 100 µM | > 100 µM | 45.2 µM | – | 94.8 µM | 62.2 µM | 31.4 µM | 72.6 µM | 63.9 µM | – | 35.4 µM | – |
| COC1=CC(=O)c2c(n[nH]c2CCNC(=O)OCc2ccccc2)C1=O | 28.3 µM | 44.9 µM | – | 34.1 µM | – | 32.1 µM | 23.7 µM | 24.5 µM | 30.1 µM | 32.7 µM | 19.9 µM | 4 µM |
| CCN(CC)c1ccc2cc(-c3csc(C)n3)c(=O)oc2c1 | > 100 µM | > 100 µM | > 100 µM | > 100 µM | > 100 µM | > 100 µM | > 100 µM | > 100 µM | > 100 µM | – | > 100 µM | > 100 µM |
| O=[N+]([O-])c1cc(Cl)ccc1S(=O)(=O)c1ccc(Cl)cc1[N+](=O)[O-] | 26.7 µM | > 100 µM | 33.9 µM | 32.7 µM | > 100 µM | 34 µM | 32.5 µM | 32 µM | 29.1 µM | – | 31 µM | – |
| O=C1COc2cc3c(cc2N1)SCCC(=O)N3 | > 100 µM | > 100 µM | > 100 µM | > 100 µM | > 100 µM | – | – | > 100 µM | > 100 µM | > 100 µM | > 100 µM | – |
| N#Cc1nc(-c2ccc(-c3nc(C#N)c(N)o3)cc2)oc1N | > 10 µM | > 10 µM | > 10 µM | > 10 µM | > 10 µM | – | > 10 µM | > 10 µM | > 10 µM | – | > 10 µM | > 10 µM |
| COC(=O)C(CC(C)C)NC(=O)CNC(=O)C(Cc1ccc(OCc2ccccc2)cc1)NC(=O)C(COCc1ccccc1)NC(=O)OC(C)(C)C (stereo not drawn) (Boc-S(Bn)Y(Bn)GL-OMe; configuration not given here) | – | > 100 µM | > 100 µM | > 100 µM | – | > 100 µM | > 100 µM | > 100 µM | > 100 µM | – | > 100 µM | > 100 µM |
| CC(=O)c1c2c(cc3c1CC1(C3)Cc3cc4c(c(C(C)=O)c3C1)CCCC4)CCCC2 | > 100 µM | > 100 µM | – | > 100 µM | 44 µM | > 100 µM | > 100 µM | – | > 100 µM | > 100 µM | > 100 µM | > 100 µM |
| CCOC(=O)CNC(=O)CNC(=O)CNC(=O)CNNc1c(OCc2ccccc2)c(=O)c1=O | > 100 µM | > 100 µM | > 100 µM | – | > 100 µM | > 100 µM | – | > 100 µM | > 100 µM | > 100 µM | > 100 µM | > 100 µM |
| OCCSCC/C(=N\N=C(/CCSCCO)c1ccccc1)c1ccccc1 | > 100 µM | > 100 µM | > 100 µM | > 100 µM | > 100 µM | > 100 µM | > 100 µM | > 100 µM | > 100 µM | – | > 100 µM | – |
| CC1(C)CC2C(/C1=N/O)C1(C)CCCC2(C)C1O (stereo not drawn) | > 100 µM | > 100 µM | > 100 µM | – | > 100 µM | > 100 µM | > 100 µM | > 100 µM | > 100 µM | – | > 100 µM | > 100 µM |
| O=C(Nc1ccccc1[N+](=O)[O-])C(=O)C(C(=O)c1ccccc1-c1ccccc1)C1OC(=O)c2ccccc21 (stereo not drawn) | 33 µM | 60.6 µM | > 100 µM | 29.2 µM | 76.1 µM | 36.8 µM | 36 µM | 37.7 µM | 30.3 µM | 37.8 µM | 32.8 µM | – |
| O=C1/C(=C/c2ccc(OC(=O)c3ccc(Cl)cc3)cc2)CCC/C1=C\c1ccc(OC(=O)c2ccc(Cl)cc2)cc1 | > 100 µM | – | > 100 µM | > 100 µM | > 100 µM | > 100 µM | > 100 µM | > 100 µM | > 100 µM | – | > 100 µM | > 100 µM |
| Cn1nc(S(N)(=O)=O)s/c1=N/S(=O)(=O)c1ccc(N)cc1 | – | – | > 100 µM | > 100 µM | – | > 100 µM | – | > 100 µM | – | > 100 µM | > 100 µM | – |
| COC(=O)/C(C#N)=C(/NCc1ccccc1)Nc1ccccc1 | > 100 µM | > 100 µM | > 100 µM | > 100 µM | – | > 100 µM | > 100 µM | > 100 µM | > 100 µM | > 100 µM | – | > 100 µM |
| COc1ccc(-c2cc(=O)c3ccc(F)cc3[nH]2)cc1 | > 100 µM | > 100 µM | – | > 100 µM | > 100 µM | > 100 µM | > 100 µM | > 100 µM | > 100 µM | – | > 100 µM | – |
| C/C(=C(/C)c1cc[n+](C)cc1)c1cc[n+](C)cc1 | > 75 µM | > 75 µM | > 75 µM | > 75 µM | > 75 µM | > 75 µM | > 75 µM | > 75 µM | > 75 µM | > 75 µM | > 75 µM | – |
